From US20230203485A1, “METHODS FOR MODULATING MHC-I EXPRESSION AND IMMUNOTHERAPY USES THEREOF” (Dana-Farber Cancer Institute, Inc., priority 2020, published 2023)

System: class I antigen presentation gene expression in MCC cell lines
Assay: RNA-seq / DESeq2 differential expression of MCC cell lines at baseline and after IFN-γ stimulation
Format: cell-based, human
Protocol: FIG. 2A comprises RNA-seq heatmaps of class I antigen presentation gene expression in MCC lines and controls.
FIG. 2B is a volcano plot of differentially expressed genes (genes below FDR cutoff 0.01 are shown in yellow) between baseline and IFN-γ-treated MCC cell lines. Differential expression analysis was performed using DESeq2, and negative LFC indicates increased expression in +IFN-γ samples. IFN genes are highlighted in red.
RNA samples were first assessed for quality using the Agilent Bioanalyzer (DV200 metric). One hundred ng of RNA were used as the input for first strand cDNA synthesis using Superscript III reverse transcriptase and Illumina's TruSeq RNA Access Sample Prep Kit. Synthesis of the second strand of cDNA was followed by indexed adapter ligation with UMI (unique molecular index) adaptors. Subsequent PCR amplification enriched for adapted fragments. Amplified libraries were quantified, normalized, pooled, and hybridized with exome targeting oligos. Following hybridization, bead clean-up, elution and PCR was performed to prepare library pools for sequencing on Illumina flowcell lanes. Transcriptomes were sequenced to a coverage of at least 50 million reads in pairs.
Raw fastq files for fibroblast and keratinocyte control lines were downloaded from SRA using R Bioconductor package SRAdb (Mayakonda et al. (2018) supra; Zhu et al. (2013) BMC Bioinformatics 14 (1): 1-4) using accession codes SRP126422 (4 replicates from control samples ‘NN’) and SRP131347 (6 replicates with condition: control and genotype: control). These fastq files, along with those for the mkl1 and waga cell lines, were aligned using STAR version 2.7.3a (Dobin et al. (2013) Bioinformatics 29 (1): 15-21), using index genome reference file downloaded from ftp.ebi.ac.uk/pub/databases/gencode/Gencode_human/release_19/GRCh37.p13.genome.fa.gz, transcript annotation file downloaded from data.broadinstitute.org/snowman/hg19/star/gencode.v19.annotation.gtf, and with the following options: --twopassMode Basic, --outSAMstrandField intronMotif, --alignIntronMax 1000000, --alignMatesGapMax 1000000, --sjdbScore 2, --outSAMtype BAM Unsorted, --outSAMattributes NH HI NM MD AS XS, --outFilterType BySJout, --outSAMunmapped Within, --genomeLoad NoSharedMemory, --outFilterScoreMinOverLread 0, --outFilterMatchNminOverLread 0, --outFilterMismatchNmax 999, and outFilterMultimapNmax 20. Duplicates were marked with picard MarkDuplicates version 2.22.0-SNAPSHOT.
RNA-sequencing bam files for MCC tumor and cell line samples were downloaded from the Broad Genomics Firecloud/Terra platform using the Google Cloud Storage command line tool gsutil version 4.5 (github.com/GoogleCloudPlatform/gsutil/).
Gene counts were obtained from bam files using featureCounts version 2.0.0 (doi.org/10.1093/bioinformatics/btt656). Very lowly expressed genes with average count across samples less than 1 were excluded from analysis. Between-sample distance metrics were computed using the Euclidean distance on the vectors of variance-stabilized counts obtained from the vst function in the DESeq2 R Bioconductor package ([…]; Love et al. (2014) Genome Biology 15 (12): 550).
Differential expression analysis was carried out between (1) viral positive and viral negative samples (adjusting for cell line or tumor as a covariate), (2) cell line and tumor samples (adjusting for viral status as a covariate), and (3) IFNγ plus and minus samples (adjusting for viral status as a covariate) using the negative binomial GLM Wald test of DESeq2, where significance was assessed using the p-values adjusted for multiple comparisons under default settings. To account for potential global gene expression differences among sample groups, RUVg (Risso et al. (2014) […] 32 (9): 896-902) was used to estimate latent factors of unwanted variation from the list of housekeeping genes downloaded from www.tau.ac.il/˜elieis/HKG/HK_genes.txt. […]

[1] = 11 MCC cell lines, baseline vs IFNγ, negative LFC = upregulation in IFNγ-treated

**Q.** For “IFN-y: type II interferon, recombinant human, used to treat MCC cells”, which “class I genes mRNA expression (RNA-seq)” value (10 of 11 MCC lines, baseline vs treated) is on record?
**A.** markedly upregulated

**Q.** And the “log2FoldChange ACSL5 (ENSG00000197142.6)” value [1]?
**A.** −5.831

**Q.** And the “log2FoldChange ADAR (ENSG00000160710.11)” value [1]?
**A.** −1.068

**Q.** And the “log2FoldChange ADGRF3 (ENSG00000173567.10)” value [1]?
**A.** −0.853

**Q.** And the “log2FoldChange ATP2C1 (ENSG00000017260.15)” value [1]?
**A.** −0.5502

**Q.** And the “log2FoldChange ATP10D (ENSG00000145246.9)” value [1]?
**A.** −2.417

**Q.** And the “log2FoldChange AZIN2 (ENSG00000142920.12)” value [1]?
**A.** −1.224

**Q.** What about the “log2FoldChange BATF2 (ENSG00000168062.5)” value [1] of the same substance?
**A.** −7.362

**Q.** What about the “log2FoldChange BCL2L14 (ENSG00000121380.8)” value [1] of the same substance?
**A.** −5.59

**Q.** And the “log2FoldChange BCL6 (ENSG00000113916.13)” value [1]?
**A.** −2.953

**Q.** And the “log2FoldChange BTN2A1 (ENSG00000112763.11)” value [1]?
**A.** −0.9873

**Q.** And the “log2FoldChange BTN2A3P (ENSG00000124549.10)” value [1]?
**A.** −4.459

**Q.** And the “log2FoldChange BTN3A1 (ENSG00000026950.12)” value [1]?
**A.** −6.582

**Q.** And the “log2FoldChange BTN3A2 (ENSG00000186470.9)” value [1]?
**A.** −6.089

**Q.** And the “log2FoldChange BTN3A3 (ENSG00000111801.11)” value [1]?
**A.** −6.93

**Q.** And the “log2FoldChange C1QB (ENSG00000173369.11)” value [1]?
**A.** −3.233

**Q.** What about the “log2FoldChange C2 (ENSG00000166278.10)” value [1] of the same substance?
**A.** −4.096

**Q.** What about the “log2FoldChange C4A (ENSG00000244731.3)” value [1] of the same substance?
**A.** −1.245

**Q.** And the “log2FoldChange C4B (ENSG00000224389.4)” value [1]?
**A.** −2.248

**Q.** What about the “log2FoldChange C5orf56 (ENSG00000197536.6)” value [1] of the same substance?
**A.** −3.71

**Q.** What about the “log2FoldChange CARD16 (ENSG00000204397.3)” value [1] of the same substance?
**A.** −6.289

**Q.** What about the “log2FoldChange CASC6 (ENSG00000224944.1)” value [1] of the same substance?
**A.** −3.263

**Q.** What about the “log2FoldChange CASP1 (ENSG00000137752.18)” value [1] of the same substance?
**A.** −7.907

**Q.** And the “log2FoldChange CASP4 (ENSG00000196954.8)” value [1]?
**A.** −4.024

**Q.** And the “log2FoldChange CASP7 (ENSG00000165806.15)” value [1]?
**A.** −1.833

**Q.** What about the “log2FoldChange CCDC73 (ENSG00000186714.8)” value [1] of the same substance?
**A.** −2.84

**Q.** What about the “log2FoldChange CCND1 (ENSG00000110092.3)” value [1] of the same substance?
**A.** −5.698

**Q.** What about the “log2FoldChange CD74 (ENSG00000019582.10)” value [1] of the same substance?
**A.** −8.494

**Q.** What about the “log2FoldChange CD274 (ENSG00000120217.9)” value [1] of the same substance?
**A.** −6.119

**Q.** What about the “log2FoldChange CDC20 (ENSG00000117399.9)” value [1] of the same substance?
**A.** 0.6763

**Q.** What about the “log2FoldChange CFB (ENSG00000243649.4)” value [1] of the same substance?
**A.** −7.333

**Q.** What about the “log2FoldChange CIR1 (ENSG00000138433.11)” value [1] of the same substance?
**A.** −0.5344

**Q.** What about the “log2FoldChange CLVS1 (ENSG00000177182.6)” value [1] of the same substance?
**A.** −3.934

**Q.** And the “log2FoldChange CMPK2 (ENSG00000134326.7)” value [1]?
**A.** −2.83

**Q.** And the “log2FoldChange CSF1 (ENSG00000184371.9)” value [1]?
**A.** −3.741

**Q.** What about the “log2FoldChange CTSO (ENSG00000256043.2)” value [1] of the same substance?
**A.** −3.005

**Q.** And the “log2FoldChange CXCL9 (ENSG00000138755.5)” value [1]?
**A.** −11.74

**Q.** And the “log2FoldChange CXCL10 (ENSG00000169245.4)” value [1]?
**A.** −5.89

**Q.** And the “log2FoldChange CXCL11 (ENSG00000169248.8)” value [1]?
**A.** −4.672

**Q.** And the “log2FoldChange DDO (ENSG00000203797.5)” value [1]?
**A.** −4.692

**Q.** What about the “log2FoldChange DDX58 (ENSG00000107201.5)” value [1] of the same substance?
**A.** −2.939

**Q.** And the “log2FoldChange DDX60 (ENSG00000137628.12)” value [1]?
**A.** −7.298

**Q.** What about the “log2FoldChange DDX60L (ENSG00000181381.9)” value [1] of the same substance?
**A.** −3.461

**Q.** What about the “log2FoldChange DNPEP (ENSG00000123992.14)” value [1] of the same substance?
**A.** −1.703

**Q.** And the “log2FoldChange DTX3L (ENSG00000163840.5)” value [1]?
**A.** −4.603

**Q.** What about the “log2FoldChange EIF2AK2 (ENSG00000055332.12)” value [1] of the same substance?
**A.** −1.367

**Q.** What about the “log2FoldChange ENSG00000121848.9 (symbol NA)” value [1] of the same substance?
**A.** −0.3499

**Q.** What about the “log2FoldChange ENSG00000197146.2 (symbol NA)” value [1] of the same substance?
**A.** −1.6

**Q.** What about the “log2FoldChange ENSG00000202533.1 (symbol NA)” value [1] of the same substance?
**A.** −3.684

**Q.** And the “log2FoldChange ENSG00000213500.3 (symbol NA)” value [1]?
**A.** −2.007

**Q.** What about the “log2FoldChange ENSG00000224666.2 (symbol NA)” value [1] of the same substance?
**A.** −5.276

**Q.** And the “log2FoldChange ENSG00000224789.1 (symbol NA)” value [1]?
**A.** −2.338

**Q.** And the “log2FoldChange ENSG00000225931.3 (symbol NA)” value [1]?
**A.** −4.205

**Q.** And the “log2FoldChange ENSG00000229023.1 (symbol NA)” value [1]?
**A.** −4.669

**Q.** And the “log2FoldChange ENSG00000229677.1 (symbol NA)” value [1]?
**A.** −2.162

**Q.** And the “log2FoldChange ENSG00000230812.1 (symbol NA)” value [1]?
**A.** −5.173

**Q.** And the “log2FoldChange ENSG00000231280.1 (symbol NA)” value [1]?
**A.** −5.122

**Q.** What about the “log2FoldChange ENSG00000232709.1 (symbol NA)” value [1] of the same substance?
**A.** −3.863

**Q.** And the “log2FoldChange ENSG00000233892.1 (symbol NA)” value [1]?
**A.** −1.246

**Q.** And the “log2FoldChange ENSG00000234290.2 (symbol NA)” value [1]?
**A.** −2.28

**Q.** And the “log2FoldChange ENSG00000238000.1 (symbol NA)” value [1]?
**A.** −1.895

**Q.** And the “log2FoldChange ENSG00000238160.1 (symbol NA)” value [1]?
**A.** −3.274

**Q.** And the “log2FoldChange ENSG00000238991.1 (symbol NA)” value [1]?
**A.** −3.733

**Q.** What about the “log2FoldChange ENSG00000245025.2 (symbol NA)” value [1] of the same substance?
**A.** −3.838

**Q.** And the “log2FoldChange ENSG00000248693.1 (symbol NA)” value [1]?
**A.** −3.648

**Q.** And the “log2FoldChange ENSG00000252206.1 (symbol NA)” value [1]?
**A.** −2.445

**Q.** And the “log2FoldChange ENSG00000260336.1 (symbol NA)” value [1]?
**A.** −2.736

**Q.** What about the “log2FoldChange ENSG00000261618.1 (symbol NA)” value [1] of the same substance?
**A.** −6.277

**Q.** And the “log2FoldChange ENSG00000271581.1 (symbol NA)” value [1]?
**A.** −4.138

**Q.** What about the “log2FoldChange ENSG00000271646.1 (symbol NA)” value [1] of the same substance?
**A.** −1.853

**Q.** What about the “log2FoldChange ENSG00000272941.1 (symbol NA)” value [1] of the same substance?
**A.** −7.747

**Q.** And the “log2FoldChange ERAP1 (ENSG00000164307.8)” value [1]?
**A.** −2.331

**Q.** What about the “log2FoldChange ERAP2 (ENSG00000164308.12)” value [1] of the same substance?
**A.** −3.931

**Q.** What about the “log2FoldChange ETV7 (ENSG00000010030.9)” value [1] of the same substance?
**A.** −5.205

**Q.** What about the “log2FoldChange FAM110C (ENSG00000184731.5)” value [1] of the same substance?
**A.** −3.465

**Q.** What about the “log2FoldChange FAM111A (ENSG00000166801.11)” value [1] of the same substance?
**A.** −2.679

**Q.** And the “log2FoldChange FAM186B (ENSG00000135436.4)” value [1]?
**A.** −1.748

**Q.** What about the “log2FoldChange FAS (ENSG00000026103.15)” value [1] of the same substance?
**A.** −2.315
